Assay results: PubChem BioAssay (NCI)
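Interpolation was linear, between the two tested concentrations surrounding the appropriate level; five concentrations were tested over 48 hours in 96-well plates. The concentration for 50% growth inhibition is given as GI50. TGI: total growth inhibition.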

Columns and labels:
Test in all cases: DTP human tumour cell line panel, 48 h
HOP-62 NSCLC = system: HOP-62 NSCLC
M14 melanoma = system: M14 melanoma
SN12C renal = system: SN12C renal
HOP-92 NSCLC = system: HOP-92 NSCLC
CAKI-1 renal = system: CAKI-1 renal
PC-3 prostate = system: PC-3 prostate
U251 CNS = system: U251 CNS
OVCAR-3 ovarian = system: OVCAR-3 ovarian
A498 renal = system: A498 renal
K-562 leukemia = system: K-562 leukemia
UACC-257 melanoma = system: UACC-257 melanoma
COLO 205 colon = system: COLO 205 colon
IGROV1 ovarian = system: IGROV1 ovarian
HCT-116 colon = system: HCT-116 colon
786-0 renal = system: 786-0 renal
A549 NSCLC = system: A549 NSCLC
UACC-62 melanoma = system: UACC-62 melanoma
HT29 colon = system: HT29 colon
SK-MEL-2 melanoma = system: SK-MEL-2 melanoma
HCT-15 colon = system: HCT-15 colon
SK-MEL-28 melanoma = system: SK-MEL-28 melanoma
DU-145 prostate = system: DU-145 prostate
SK-MEL-5 melanoma = system: SK-MEL-5 melanoma
EKVX NSCLC = system: EKVX NSCLC
HCC-2998 colon = system: HCC-2998 colon
NCI-H522 lung = system: NCI-H522 lung
SR leukemia = system: SR leukemia
CCRF-CEM leukemia = system: CCRF-CEM leukemia
SNB-19 CNS = system: SNB-19 CNS
SK-OV-3 ovarian = system: SK-OV-3 ovarian
NCI-H460 lung = system: NCI-H460 lung
SF-268 CNS = system: SF-268 CNS
NCI-H226 lung = system: NCI-H226 lung
KM12 colon = system: KM12 colon
MOLT-4 leukemia = system: MOLT-4 leukemia
MALME-3M melanoma = system: MALME-3M melanoma
RXF 393 renal = system: RXF 393 renal
LOX IMVI melanoma = system: LOX IMVI melanoma
BT-549 breast = system: BT-549 breast
TK-10 renal = system: TK-10 renal
OVCAR-5 ovarian = system: OVCAR-5 ovarian
NCI/ADR-RES ovarian = system: NCI/ADR-RES ovarian
SW-620 colon = system: SW-620 colon
OVCAR-4 ovarian = system: OVCAR-4 ovarian
HS 578T breast = system: HS 578T breast
OVCAR-8 ovarian = system: OVCAR-8 ovarian
SF-539 CNS = system: SF-539 CNS
SNB-75 CNS = system: SNB-75 CNS
T-47D breast = system: T-47D breast
MDA-MB-231 breast = system: MDA-MB-231 breast
SF-295 CNS = system: SF-295 CNS
UO-31 renal = system: UO-31 renal
RPMI-8226 leukemia = system: RPMI-8226 leukemia
HL-60(TB) leukemia = system: HL-60(TB) leukemia
ACHN renal = system: ACHN renal
MDA-MB-435 = system: MDA-MB-435

Compound `CN(C)CCCNc1c2ccc(Cl)cc2nc2c1oc1ccc(Cl)cc12` has a GI50 (HOP-62 NSCLC) of 5.21 µM, a TGI (HOP-62 NSCLC) of 19.6 µM and a GI50 (M14 melanoma) of 1.71 µM. It also gave a TGI (M14 melanoma) of 3.78 µM, a GI50 (SN12C renal) of 1.72 µM and a TGI (SN12C renal) of 3.51 µM. It also gave a GI50 (HOP-92 NSCLC) of 1.41 µM, a TGI (HOP-92 NSCLC) of 7.69 µM and a GI50 (CAKI-1 renal) of 1.49 µM. The TGI (CAKI-1 renal) was 2.9 µM, the GI50 (PC-3 prostate) was 1.81 µM and the TGI (PC-3 prostate) was 3.86 µM. It also gave a GI50 (U251 CNS) of 1.76 µM, a TGI (U251 CNS) of 3.35 µM and a GI50 (OVCAR-3 ovarian) of 2.24 µM. The TGI (OVCAR-3 ovarian) was 4.99 µM, the GI50 (A498 renal) was 15.3 µM and the TGI (A498 renal) was 31.4 µM. It also gave a GI50 (K-562 leukemia) of 2.73 µM, a GI50 (UACC-257 melanoma) of 12.3 µM and a TGI (UACC-257 melanoma) of 25.5 µM. For the same compound, the GI50 (COLO 205 colon) was 4.58 µM, the TGI (COLO 205 colon) was 20 µM and the GI50 (IGROV1 ovarian) was 3.66 µM. It also gave a TGI (IGROV1 ovarian) of 15.9 µM, a GI50 (HCT-116 colon) of 1.43 µM and a TGI (HCT-116 colon) of 2.79 µM. For the same compound, the GI50 (786-0 renal) was 1.65 µM, the TGI (786-0 renal) was 3.25 µM and the GI50 (A549 NSCLC) was 1.67 µM. The TGI (A549 NSCLC) was 3.18 µM, the GI50 (UACC-62 melanoma) was 16.4 µM and the TGI (UACC-62 melanoma) was 31.6 µM. The GI50 (HT29 colon) was 1.69 µM, the TGI (HT29 colon) was 3.5 µM and the GI50 (SK-MEL-2 melanoma) was 13.6 µM. The TGI (SK-MEL-2 melanoma) was 26.8 µM, the GI50 (HCT-15 colon) was 2.1 µM and the TGI (HCT-15 colon) was 5.71 µM. It also gave a GI50 (SK-MEL-28 melanoma) of 14 µM, a TGI (SK-MEL-28 melanoma) of 27.2 µM and a GI50 (DU-145 prostate) of 3.01 µM. For the same compound, the TGI (DU-145 prostate) was 9.1 µM, the GI50 (SK-MEL-5 melanoma) was 16.3 µM and the TGI (SK-MEL-5 melanoma) was 29.8 µM. The GI50 (EKVX NSCLC) was 4.76 µM, the TGI (EKVX NSCLC) was 17.3 µM and the GI50 (HCC-2998 colon) was 1.84 µM. The TGI (HCC-2998 colon) was 3.38 µM, the GI50 (NCI-H522 lung) was 4.22 µM and the TGI (NCI-H522 lung) was 17 µM. It also gave a GI50 (SR leukemia) of 3.04 µM, a TGI (SR leukemia) of 10.1 µM and a GI50 (CCRF-CEM leukemia) of 3.42 µM. For the same compound, the TGI (CCRF-CEM leukemia) was 12.2 µM, the GI50 (SNB-19 CNS) was 5.97 µM and the TGI (SNB-19 CNS) was 18.8 µM. It also gave a GI50 (SK-OV-3 ovarian) of 10.1 µM, a TGI (SK-OV-3 ovarian) of 21.7 µM and a GI50 (NCI-H460 lung) of 2.1 µM. It also gave a TGI (NCI-H460 lung) of 4.8 µM, a GI50 (SF-268 CNS) of 3.45 µM and a TGI (SF-268 CNS) of 15.3 µM. It also gave a GI50 (NCI-H226 lung) of 6.32 µM, a TGI (NCI-H226 lung) of 20.9 µM and a GI50 (KM12 colon) of 2.65 µM. It also gave a TGI (KM12 colon) of 8.35 µM, a GI50 (MOLT-4 leukemia) of 3.14 µM and a TGI (MOLT-4 leukemia) of 11.8 µM. It also gave a GI50 (MALME-3M melanoma) of 4.76 µM, a TGI (MALME-3M melanoma) of 20.5 µM and a GI50 (RXF 393 renal) of 2.68 µM. It also gave a TGI (RXF 393 renal) of 8.4 µM, a GI50 (LOX IMVI melanoma) of 1.89 µM and a TGI (LOX IMVI melanoma) of 3.4 µM. For the same compound, the GI50 (BT-549 breast) was 11.4 µM, the TGI (BT-549 breast) was 25 µM and the GI50 (TK-10 renal) was 13.1 µM. For the same compound, the TGI (TK-10 renal) was 26 µM, the GI50 (OVCAR-5 ovarian) was 7.03 µM and the TGI (OVCAR-5 ovarian) was 19.7 µM. The GI50 (NCI/ADR-RES ovarian) was 2.31 µM, the TGI (NCI/ADR-RES ovarian) was 6.59 µM and the GI50 (SW-620 colon) was 1.64 µM. For the same compound, the TGI (SW-620 colon) was 3.63 µM, the GI50 (OVCAR-4 ovarian) was 1.67 µM and the TGI (OVCAR-4 ovarian) was 3.32 µM. It also gave a GI50 (HS 578T breast) of 8.82 µM, a TGI (HS 578T breast) of 28.2 µM and a GI50 (OVCAR-8 ovarian) of 2.07 µM. It also gave a TGI (OVCAR-8 ovarian) of 4.45 µM, a GI50 (SF-539 CNS) of 1.81 µM and a TGI (SF-539 CNS) of 3.24 µM. The GI50 (SNB-75 CNS) was 5.25 µM, the TGI (SNB-75 CNS) was 19.2 µM and the GI50 (T-47D breast) was 13.1 µM. It also gave a TGI (T-47D breast) of 29.2 µM, a GI50 (MDA-MB-231 breast) of 2.19 µM and a TGI (MDA-MB-231 breast) of 5.94 µM. It also gave a GI50 (SF-295 CNS) of 4.72 µM, a TGI (SF-295 CNS) of 17.1 µM and a GI50 (UO-31 renal) of 4.13 µM. For the same compound, the TGI (UO-31 renal) was 18.3 µM, the GI50 (RPMI-8226 leukemia) was 2.58 µM and the TGI (RPMI-8226 leukemia) was 7.84 µM. It also gave a GI50 (HL-60(TB) leukemia) of 1.98 µM, a TGI (HL-60(TB) leukemia) of 4.81 µM and a GI50 (ACHN renal) of 1.7 µM. The TGI (ACHN renal) was 3.23 µM, the GI50 (MDA-MB-435) was 2.18 µM and the TGI (MDA-MB-435) was 5.57 µM.
